Laboratory results taken from patent US10004701B2, “Methods and compositions for treating infection” (UNIVERSITY OF ROCHESTER, priority 2012, dated 2018).
Where a name gives a salt, the structure may show the parent alone. Read-outs that look alike come from different tables or passages of the source.

What was measured:
Assay in all cases: AK assay 384-well format, Prestwick library screening
E. coli = assay type: cell-based, Escherichia coli; details: 50 μM final drug concentration; for fold induction at 50 µM: Escherichia coli, 3 h
K. pneumoniae = assay type: cell-based, Klebsiella pneumoniae; details: 50 μM final drug concentration; for fold induction at 50 µM: Klebsiella pneumoniae, 3 h
E. faecium = assay type: cell-based, Enterococcus faecium; details: 50 μM final drug concentration; for fold induction at 50 µM: Enterococcus faecium, 3 h
P. aeruginosa = assay type: cell-based, Pseudomonas aeruginosa; details: 50 μM final drug concentration; for fold induction at 50 µM: Pseudomonas aeruginosa, 3 h
E. cloacae = assay type: cell-based, Enterobacter cloacae; details: 50 μM final drug concentration; for fold induction at 50 µM: Enterobacter cloacae, 3 h
[1] = tested on: S. aureus strain USA300-0114; assay type: cell-based, Staphylococcus aureus; details: 50 μM final drug concentration; for fold induction at 50 µM: Staphylococcus aureus, USA300, 3 h
[2] = tested on: A. baumannii strain 98-37-09; assay type: cell-based, Acinetobacter baumannii; details: 50 μM final drug concentration; for fold induction at 50 µM: Acinetobacter baumannii, 983709, 3 h
[3] = planktonic E. coli, 384-well, cutoff for positive-scoring molecules 3-fold increase, read-out: AK-based Prestwick Library Screening Results: E. coli (increase in extracellular AK activity)
[4] = planktonic K. pneumoniae, 384-well, cutoff for positive-scoring molecules 3-fold increase, read-out: AK-based Prestwick Library Screening Results: K. pneumoniae (increase in extracellular AK activity)
[5] = planktonic E. faecium, 384-well, cutoff for positive-scoring molecules 3-fold increase, read-out: AK-based Prestwick Library Screening Results: E. faecium (increase in extracellular AK activity)
[6] = planktonic P. aeruginosa, 384-well, cutoff for positive-scoring molecules 3-fold increase, read-out: AK-based Prestwick Library Screening Results: P. aeruginosa (increase in extracellular AK activity)
[7] = planktonic E. cloacae, 384-well, cutoff for positive-scoring molecules 3-fold increase, read-out: AK-based Prestwick Library Screening Results: E. cloacae (increase in extracellular AK activity)
[8] = planktonic S. aureus, 384-well, cutoff for positive-scoring molecules 3-fold increase, read-out: AK-based Prestwick Library Screening Results: S. aureus (increase in extracellular AK activity)
[9] = planktonic A. baumannii, 384-well, cutoff for positive-scoring molecules 3-fold increase, read-out: AK-based Prestwick Library Screening Results: A. baumannii (increase in extracellular AK activity)
[10] = cutoff for positive-scoring molecules 3-fold increase
[11] = planktonic K. pneumoniae, cutoff for positive-scoring molecules 3-fold increase, read-out: AK-based Prestwick Library Screening Results, K. pneumoniae (increase in extracellular AK activity)
[12] = planktonic E. faecium, cutoff for positive-scoring molecules 3-fold increase, read-out: AK-based Prestwick Library Screening Results, E. faecium (increase in extracellular AK activity)
[13] = planktonic P. aeruginosa, cutoff for positive-scoring molecules 3-fold increase, read-out: AK-based Prestwick Library Screening Results, P. aeruginosa (increase in extracellular AK activity)
[14] = planktonic E. cloacae, cutoff for positive-scoring molecules 3-fold increase, read-out: AK-based Prestwick Library Screening Results, E. cloacae (increase in extracellular AK activity)
[15] = planktonic S. aureus, cutoff for positive-scoring molecules 3-fold increase, read-out: AK-based Prestwick Library Screening Results, S. aureus (increase in extracellular AK activity)
[16] = planktonic A. baumannii, cutoff for positive-scoring molecules 3-fold increase, read-out: AK-based Prestwick Library Screening Results, A. baumannii (increase in extracellular AK activity)
[17] = planktonic, cutoff for positive 3-fold increase, read-out: AK-based Prestwick Library Screening Results, E. coli (fold increase in extracellular AK activity)
[18] = planktonic, cutoff for positive 3-fold increase, read-out: AK-based Prestwick Library Screening Results, K. pneumoniae (fold increase in extracellular AK activity)
[19] = planktonic, cutoff for positive 3-fold increase, read-out: AK-based Prestwick Library Screening Results, E. faecium (fold increase in extracellular AK activity)
[20] = planktonic, cutoff for positive 3-fold increase, read-out: AK-based Prestwick Library Screening Results, P. aeruginosa (fold increase in extracellular AK activity)
[21] = planktonic, cutoff for positive 3-fold increase, read-out: AK-based Prestwick Library Screening Results, E. cloacae (fold increase in extracellular AK activity)
[22] = planktonic, cutoff for positive 3-fold increase, read-out: AK-based Prestwick Library Screening Results, S. aureus (fold increase in extracellular AK activity)
[23] = planktonic, cutoff for positive 3-fold increase, read-out: AK-based Prestwick Library Screening Results, A. baumannii (fold increase in extracellular AK activity)

CN(C)[C@@H]1C(O)=C(C(N)=O)C(=O)[C@@]2(O)C(O)=C3C(=O)c4c(O)cccc4[C@@](C)(O)[C@H]3C[C@@H]12 [Tetracycline hydrochloride]
fold induction at 50 µM (E. coli; [3]): 0.8
fold induction at 50 µM (K. pneumoniae; [4]): 0.2
fold induction at 50 µM (E. faecium; [5]): 1
fold induction at 50 µM (P. aeruginosa; [6]): 0.5
fold induction at 50 µM (E. cloacae; [7]): 1
fold induction at 50 µM [1, 8]: 9.2
fold induction at 50 µM [2, 9]: 4.4

CCN(CC)CC#CCOC(=O)C(O)(c1ccccc1)C1CCCCC1 (stereo not shown) [Oxybutynin chloride]
fold induction at 50 µM (E. coli; [3]): 1.4
fold induction at 50 µM (K. pneumoniae; [4]): 0.9
fold induction at 50 µM (E. faecium; [5]): 1.1
fold induction at 50 µM (P. aeruginosa; [6]): 1
fold induction at 50 µM (E. cloacae; [7]): 1.6
fold induction at 50 µM [1, 8]: 1.2
fold induction at 50 µM [2, 9]: 1.1

C#C[C@]1(O)CC[C@H]2[C@@H]3CCc4cc(OC)ccc4[C@H]3CC[C@@]21C [Ethynylestradiol 3-methyl ether]
AK-based Prestwick Library Screening Results, E. coli (fold increase in extracellular AK activity) (E. coli; [10]): 1.2
AK-based Prestwick Library Screening Results, K. pneumoniae (fold increase in extracellular AK activity) (K. pneumoniae; [10]): 0.8
AK-based Prestwick Library Screening Results, E. faecium (fold increase in extracellular AK activity) (E. faecium; [10]): 0.9
AK-based Prestwick Library Screening Results, P. aeruginosa (fold increase in extracellular AK activity) (P. aeruginosa; [10]): 1.1
AK-based Prestwick Library Screening Results, E. cloacae (fold increase in extracellular AK activity) (E. cloacae; [10]): 1.5
AK-based Prestwick Library Screening Results, S. aureus (fold increase in extracellular AK activity) [1, 10]: 0.8
AK-based Prestwick Library Screening Results, A. baumannii (fold increase in extracellular AK activity) [2, 10]: 1.1

Dihydroergotamine tartrate
AK-based Prestwick Library Screening Results: E. coli (increase in extracellular AK activity) (E. coli; planktonic E. coli, 384-well, […]): 1.3
AK-based Prestwick Library Screening Results: K. pneumoniae (increase in extracellular AK activity) (K. pneumoniae; planktonic K. pneumoniae, 384-well, cutoff for positive-scoring molecules 3-fold increase): 0.9
AK-based Prestwick Library Screening Results: E. faecium (increase in extracellular AK activity) (E. faecium; planktonic E. faecium, 384-well, cutoff for positive-scoring molecules 3-fold increase): 1.0
AK-based Prestwick Library Screening Results: P. aeruginosa (increase in extracellular AK activity) (P. aeruginosa; planktonic P. aeruginosa, 384-well, cutoff for positive-scoring molecules 3-fold increase): 1.2
AK-based Prestwick Library Screening Results: E. cloacae (increase in extracellular AK activity) (E. cloacae; planktonic E. cloacae, 384-well, cutoff for positive-scoring molecules 3-fold increase): 1.3
AK-based Prestwick Library Screening Results: S. aureus (increase in extracellular AK activity) ([1]; planktonic S. aureus, 384-well, cutoff for positive-scoring molecules 3-fold increase): 1.0
AK-based Prestwick Library Screening Results: A. baumannii (increase in extracellular AK activity) ([2]; planktonic A. baumannii, 384-well, cutoff for positive-scoring molecules 3-fold increase): 1.5

CN(C)CC/C=C1/c2ccccc2Sc2ccc(Cl)cc21 [Chlorprothixene hydrochloride]
fold induction at 50 µM (E. coli; planktonic E. coli, […], read-out: AK-based Prestwick Library Screening Results, E. coli (increase in extracellular AK activity)): 1
fold induction at 50 µM (K. pneumoniae; [11]): 0.8
fold induction at 50 µM (E. faecium; [12]): 1
fold induction at 50 µM (P. aeruginosa; [13]): 0.9
fold induction at 50 µM (E. cloacae; [14]): 1
fold induction at 50 µM [1, 15]: 0.6
fold induction at 50 µM [2, 16]: 1.2

CC1=NS(=O)(=O)c2cc(Cl)ccc2N1 [Diazoxide]
fold induction at 50 µM (E. coli; 384-well format, cutoff for positive-scoring molecules 3-fold increase, read-out: AK-based Prestwick Library Screening Results, E. coli (increase in extracellular AK activity)): 0.5
fold induction at 50 µM (K. pneumoniae; 384-well format, cutoff for positive-scoring molecules 3-fold increase, read-out: AK-based Prestwick Library Screening Results, K. pneumoniae (increase in extracellular AK activity)): 0.4
fold induction at 50 µM (E. faecium; 384-well format, cutoff for positive-scoring molecules 3-fold increase, read-out: AK-based Prestwick Library Screening Results, E. faecium (increase in extracellular AK activity)): 0.9
fold induction at 50 µM (P. aeruginosa; 384-well format, cutoff for positive-scoring molecules 3-fold increase, read-out: AK-based Prestwick Library Screening Results, P. aeruginosa (increase in extracellular AK activity)): 0.4
fold induction at 50 µM (E. cloacae; 384-well format, cutoff for positive-scoring molecules 3-fold increase, read-out: AK-based Prestwick Library Screening Results, E. cloacae (increase in extracellular AK activity)): 0.4
fold induction at 50 µM ([1]; 384-well format, cutoff for positive-scoring molecules 3-fold increase, read-out: AK-based Prestwick Library Screening Results, S. aureus (increase in extracellular AK activity)): 0.5
fold induction at 50 µM ([2]; 384-well format, cutoff for positive-scoring molecules 3-fold increase, read-out: AK-based Prestwick Library Screening Results, A. baumannii (increase in extracellular AK activity)): 0.4

CCN(CC)CCNc1ccc(CO)c2sc3ccccc3c(=O)c12 [Hycanthone]
fold induction at 50 µM (E. coli; planktonic E. coli, cutoff for positive-scoring molecules 3-fold increase, read-out: AK-based Prestwick Library Screening Results, E. coli (increase in extracellular AK activity)): 0.9
fold induction at 50 µM (K. pneumoniae; [11]): 0.7
fold induction at 50 µM (E. faecium; [12]): 1.2
fold induction at 50 µM (P. aeruginosa; [13]): 0.8
fold induction at 50 µM (E. cloacae; [14]): 1.1
fold induction at 50 µM [1, 15]: 0.8
fold induction at 50 µM [2, 16]: 0.8

O=C(O)c1ccccc1C(=O)Nc1ccc(S(=O)(=O)Nc2nccs2)cc1 [Phthalylsulfathiazole]
fold induction at 50 µM (E. coli; cutoff for positive-scoring molecules 3-fold increase, read-out: AK-based Prestwick Library Screening Results, E. coli (fold increase in extracellular AK activity)): 1.4
fold induction at 50 µM (K. pneumoniae; cutoff for positive-scoring molecules 3-fold increase, read-out: AK-based Prestwick Library Screening Results, K. pneumoniae (fold increase in extracellular AK activity)): 1
fold induction at 50 µM (E. faecium; cutoff for positive-scoring molecules 3-fold increase, read-out: AK-based Prestwick Library Screening Results, E. faecium (fold increase in extracellular AK activity)): 1
fold induction at 50 µM (P. aeruginosa; cutoff for positive-scoring molecules 3-fold increase, read-out: AK-based Prestwick Library Screening Results, P. aeruginosa (fold increase in extracellular AK activity)): 1
fold induction at 50 µM (E. cloacae; cutoff for positive-scoring molecules 3-fold increase, read-out: AK-based Prestwick Library Screening Results, E. cloacae (fold increase in extracellular AK activity)): 1.2
fold induction at 50 µM ([1]; cutoff for positive-scoring molecules 3-fold increase, read-out: AK-based Prestwick Library Screening Results, S. aureus (fold increase in extracellular AK activity)): 1.4
fold induction at 50 µM ([2]; cutoff for positive-scoring molecules 3-fold increase, read-out: AK-based Prestwick Library Screening Results, A. baumannii (fold increase in extracellular AK activity)): 1.4

CC(C)(Oc1ccc(CCNC(=O)c2ccc(Cl)cc2)cc1)C(=O)O [Bezafibrate]
fold induction at 50 µM (E. coli; [17]): 0.9
fold induction at 50 µM (K. pneumoniae; [18]): 0.7
fold induction at 50 µM (E. faecium; [19]): 0.8
fold induction at 50 µM (P. aeruginosa; [20]): 1
fold induction at 50 µM (E. cloacae; [21]): 1.5
fold induction at 50 µM [1, 22]: 1.1
fold induction at 50 µM [2, 23]: 0.8

C[C@@H]1NCCc2cc(O)c(O)cc21 [Salsolinol hydrobromide]
fold induction at 50 µM (E. coli; [17]): 1.2
fold induction at 50 µM (K. pneumoniae; [18]): 1.2
fold induction at 50 µM (E. faecium; [19]): 1
fold induction at 50 µM (P. aeruginosa; [20]): 1.1
fold induction at 50 µM (E. cloacae; [21]): 1.5
fold induction at 50 µM [1, 22]: 1.1
fold induction at 50 µM [2, 23]: 1.2
